Literature values in patent publication US6476058B2 (Isotechnika, Inc., priority 1998, dated 2002).

What was measured:
[1] = system: patients with chronic stable angina
[2] = in vivo
human = settings: racemic mixture administered to a human

**Q.** Which “reduction in blood pressures” value [1] does the source give for `CCOC(=O)C1=C(COCCN)NC(C)=C(C(=O)OC)C1c1ccccc1Cl` (racemic) [amlodipine, (R.S.) 3-ethyl-5-1-methyl-2-(2-aminoethoxymethyl)-4-(2-chlorophenyl)-1,4-dihydro-6-methyl-3,5-pyridinedicarboxylate] here?
**A.** Its value is 4/1.

**Q.** What about the serum calcium concentration [2] of the same molecule?
**A.** Its serum calcium concentration is “not affected”.

**Q.** What about the adverse effects (human) of the same molecule?
**A.** Its adverse effects is “headache and edema, dizziness, flushing, palpitation, fatigue, nausea, abdominal pain and somnolence”.

**Q.** And the “metabolites excreted in the urine” value (in vivo)?
**A.** Its value is 60%.

**Q.** What about the “parent compound excreted in the urine” value (in vivo) of the same molecule?
**A.** The value was 10%.

**Q.** What about the “bioavailability in the presence of food” value (oral, food) of the same molecule?
**A.** The value was “not altered”.

**Q.** And the “influence of renal impairment on pharmacokinetics” value (renal impairment)?
**A.** The value was “not significantly influenced”.
